Results reported in ChEMBL document CHEMBL1781988, “Quinolizidinyl derivatives of bi- and tricyclic systems as potent inhibitors of acetyl- and butyrylcholinesterase with potential in Alzheimer's disease” (Eur J Med Chem, 2011).

Assays:
[1] = biological target: Cholinesterase (Equus caballus, UniProt P81908)
Description: Inhibition of Equine serum BChE using butyrylthiocholine iodide as a substrate after 20 mins by Ellman's assay

[2] = Selectivity index, ratio of IC50 for bovine erythrocyte AChE to IC50 for Equine serum BChE
[3] = biological target: T1, Acetylcholinesterase (Bos taurus, UniProt P23795)
T1 sequence (P23795 whole entry): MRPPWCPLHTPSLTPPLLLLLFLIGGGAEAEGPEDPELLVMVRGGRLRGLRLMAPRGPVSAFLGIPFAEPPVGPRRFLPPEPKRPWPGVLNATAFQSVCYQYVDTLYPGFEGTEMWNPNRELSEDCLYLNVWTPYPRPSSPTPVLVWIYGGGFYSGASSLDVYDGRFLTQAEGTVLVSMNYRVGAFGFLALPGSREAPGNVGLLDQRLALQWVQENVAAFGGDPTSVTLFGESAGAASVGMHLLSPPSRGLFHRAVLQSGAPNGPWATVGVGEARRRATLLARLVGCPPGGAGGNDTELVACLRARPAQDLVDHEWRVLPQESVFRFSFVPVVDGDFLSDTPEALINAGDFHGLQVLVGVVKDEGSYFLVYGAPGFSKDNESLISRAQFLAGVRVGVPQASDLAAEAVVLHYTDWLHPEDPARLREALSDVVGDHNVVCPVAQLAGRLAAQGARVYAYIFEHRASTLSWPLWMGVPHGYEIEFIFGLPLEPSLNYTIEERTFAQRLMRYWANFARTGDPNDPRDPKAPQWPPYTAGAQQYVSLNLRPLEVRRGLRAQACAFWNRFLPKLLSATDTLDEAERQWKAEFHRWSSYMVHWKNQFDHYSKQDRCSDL
Description: Inhibition of bovine erythrocyte AChE using acetylthiocholine iodide as a substrate after 20 mins by Ellman's assay

[4] = biological target: Cholinesterase (Equus caballus) (UniProt P81908); test: Inhibition of Equine serum BChE using butyrylthiocholine iodide as a substrate at 10 uM after 20 mins by Ellman's assay
[5] = biological target: T2, Acetylcholinesterase (Homo sapiens, UniProt P22303)
Description: Inhibition of human erythrocytes AChE

[6] = biological target: T2, Acetylcholinesterase; remark: listed apart in the source
Description: Inhibition of human plasma AChE

[7] = biological target: Cholinesterase (Homo sapiens, UniProt P06276)
Description: Inhibition of human plasma BChE

[8] = biological target: Muscarinic acetylcholine receptor; test: Inhibition of muscarinic receptor in rat brain synaptosomes; assay type: subcellular

Chain of Cholinesterase (Equus caballus, UniProt P81908) (P81908 whole entry): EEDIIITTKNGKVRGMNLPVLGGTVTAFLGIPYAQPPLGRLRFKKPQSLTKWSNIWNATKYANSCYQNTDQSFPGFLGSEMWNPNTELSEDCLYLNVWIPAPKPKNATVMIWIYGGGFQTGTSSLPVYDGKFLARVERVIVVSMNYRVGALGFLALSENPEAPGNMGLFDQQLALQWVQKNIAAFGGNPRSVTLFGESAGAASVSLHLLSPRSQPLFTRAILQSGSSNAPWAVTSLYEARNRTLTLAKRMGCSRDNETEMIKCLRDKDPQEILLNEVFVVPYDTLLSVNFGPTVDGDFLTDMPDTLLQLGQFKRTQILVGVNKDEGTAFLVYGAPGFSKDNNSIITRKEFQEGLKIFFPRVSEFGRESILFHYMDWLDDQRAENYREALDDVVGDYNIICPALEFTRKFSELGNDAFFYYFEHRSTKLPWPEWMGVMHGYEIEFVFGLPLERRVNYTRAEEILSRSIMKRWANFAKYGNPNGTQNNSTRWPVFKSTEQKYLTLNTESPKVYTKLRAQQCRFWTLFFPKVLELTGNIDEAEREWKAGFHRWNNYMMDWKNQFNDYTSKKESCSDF
Chain of Cholinesterase (Equus caballus) (P81908 whole entry): as above
Chain of Cholinesterase (Homo sapiens, UniProt P06276) (P06276 whole entry, looked up): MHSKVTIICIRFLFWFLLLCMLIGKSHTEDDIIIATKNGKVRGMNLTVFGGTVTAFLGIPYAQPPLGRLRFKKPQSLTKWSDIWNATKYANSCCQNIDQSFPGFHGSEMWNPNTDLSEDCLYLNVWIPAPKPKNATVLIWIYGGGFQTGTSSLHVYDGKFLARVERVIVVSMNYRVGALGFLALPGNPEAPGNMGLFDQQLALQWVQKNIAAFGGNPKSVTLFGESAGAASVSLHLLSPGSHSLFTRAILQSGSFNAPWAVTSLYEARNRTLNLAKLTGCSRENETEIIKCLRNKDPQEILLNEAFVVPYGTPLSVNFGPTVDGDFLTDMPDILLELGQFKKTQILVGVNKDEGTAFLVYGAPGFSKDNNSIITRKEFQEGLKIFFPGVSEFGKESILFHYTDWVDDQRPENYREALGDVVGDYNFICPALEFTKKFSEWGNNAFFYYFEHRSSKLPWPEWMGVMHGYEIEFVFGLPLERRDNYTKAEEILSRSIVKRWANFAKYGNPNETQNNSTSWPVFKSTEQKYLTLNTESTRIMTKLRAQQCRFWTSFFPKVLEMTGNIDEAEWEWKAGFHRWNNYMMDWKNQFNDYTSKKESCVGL
T2 sequence (P22303 whole entry): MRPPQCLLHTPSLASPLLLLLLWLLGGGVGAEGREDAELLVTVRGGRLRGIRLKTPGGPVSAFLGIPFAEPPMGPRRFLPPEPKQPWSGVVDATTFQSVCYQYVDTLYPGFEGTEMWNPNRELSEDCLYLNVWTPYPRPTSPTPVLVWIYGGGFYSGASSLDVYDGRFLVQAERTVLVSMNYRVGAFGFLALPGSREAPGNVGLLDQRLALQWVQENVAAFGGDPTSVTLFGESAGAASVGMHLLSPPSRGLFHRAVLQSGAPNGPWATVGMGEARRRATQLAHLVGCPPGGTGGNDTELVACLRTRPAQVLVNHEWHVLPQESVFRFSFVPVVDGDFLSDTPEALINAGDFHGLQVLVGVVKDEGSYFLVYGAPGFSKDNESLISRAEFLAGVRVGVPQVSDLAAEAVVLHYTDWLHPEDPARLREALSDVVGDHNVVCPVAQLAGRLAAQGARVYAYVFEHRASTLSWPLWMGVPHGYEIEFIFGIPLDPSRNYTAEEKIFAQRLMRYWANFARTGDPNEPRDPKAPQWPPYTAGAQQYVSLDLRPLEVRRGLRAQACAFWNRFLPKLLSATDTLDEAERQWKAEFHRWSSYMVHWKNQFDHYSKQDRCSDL

SMILES | IC50 [1] | IC50 [3] | also measured
O=C(CSC[C@@H]1CCCN2CCCC[C@H]12)N1c2ccccc2Sc2ccccc21 | 430 nM | – | –
CN1CCCC(CC2c3ccccc3Sc3ccccc32)C1 (stereo unspecified) [METHIXENE] | 1600 nM | – | –
c1ccc(N(C[C@@H]2CCCN3CCCC[C@H]23)c2ccccc2)cc1 | 8100 nM | 8900 nM | Ratio IC50 [2]: 1.1
O=c1ccc2cc(OCCCNC[C@@H]3CCCN4CCCC[C@H]34)ccc2o1 | – | 6600 nM | inhibition [4]: 40%
COc1ccc2nc3cc(Cl)ccc3c(NCCSC[C@@H]3CCCN4CCCC[C@H]34)c2c1 | 340 nM | 840 nM | Ratio IC50 [2]: 2.5
O=C(C[C@H]1CCCN2CCCC[C@H]12)N1c2ccccc2Sc2ccccc21 | 4800 nM | – | –
c1ccc2c(c1)Cc1ccccc1N2C[C@@H]1CCCN2CCCC[C@H]12 | 1400 nM | – | –
CN(C)CC(C)(C)c1cccc(OC(=O)NCCCCN2CCOCC2)c1 | – | – | IC50 [5]: 100000 nM; IC50 [6]: 100000 nM; IC50 [7]: 9 nM
CC(C)c1ccc(NC(=O)Oc2ccc3c(c2)[C@]2(C)CCN(CCc4ccccc4)[C@@H]2N3C)cc1 | – | – | IC50 [5]: > 30000 nM; IC50 [6]: > 30000 nM; IC50 [7]: 6 nM
c1ccc2c(c1)c1ccccc1n2C[C@@H]1CCCN2CCCC[C@H]12 | 2000 nM | – | –
O=C1Nc2cccnc2N(C[C@@H]2CCCN3CCCC[C@H]23)c2ccccc21 | – | – | inhibition [4]: 28%
C[N+]12CCCC[C@@H]1[C@H](CN1c3ccccc3Sc3ccccc31)CCC2 (stereo partly specified) | 510 nM | – | –
O=C(CCSC[C@@H]1CCCN2CCCC[C@H]12)N1c2ccccc2Sc2ccccc21 | 750 nM | – | –
c1ccc2c(c1)Sc1ccccc1N2C[C@@H]1CCCN2CCCC[C@H]12 [LUPINYLPHENOTHIAZINE] | 2000 nM | – | IC50 [8]: 100 nM
CCCCCCCNC(=O)Oc1ccc2c(c1)[C@]1(C)CCN(C)[C@@H]1N2C [EPTASTIGMINE] | – | – | IC50 [6]: 22000 nM
CC(SC[C@@H]1CCCN2CCCC[C@H]12)C(=O)N1c2ccccc2Sc2ccccc21 (stereo partly specified) | 470 nM | – | –
COc1ccc2nc3cc(Cl)ccc3c(NCCCSC[C@@H]3CCCN4CCCC[C@H]34)c2c1 | 690 nM | 220 nM | Ratio IC50 [2]: 0.32
CCN(CC)C(C)CN1c2ccccc2Sc2ccccc21 (stereo unspecified) [ETHOPROPAZINE] | 720 nM | – | IC50 [7]: 300 nM
c1ccc2c(c1)CCc1ccccc1N2C[C@@H]1CCCN2CCCC[C@H]12 | 2200 nM | – | –
O=C(C[C@@H]1CCCN2CCCC[C@H]12)N1c2ccccc2Sc2ccccc21 [HOMOLUPINANOYLPHENOTHIAZINE] | 3000 nM | – | –
COc1ccc2nc3cc(Cl)ccc3c(NC[C@@H]3CCCN4CCCC[C@H]34)c2c1 | 870 nM | 7300 nM | Ratio IC50 [2]: 8.4
C1=Cc2ccccc2C(=C[C@@H]2CCCN3CCCC[C@H]23)c2ccccc21 | 2000 nM | 8300 nM | Ratio IC50 [2]: 4.1
c1ccc(C(SC[C@@H]2CCCN3CCCC[C@H]23)c2ccccc2)cc1 | 3300 nM | – | –
c1ccc2c(c1)-c1ccccc1C2C[C@@H]1CCCN2CCCC[C@H]12 | 630 nM | – | –
c1ccc2c(c1)Sc1ccccc1N2C1CN2CCC1CC2 (stereo unspecified) | 3000 nM | – | IC50 [8]: 100 nM

SMILES | IC50 [1] | IC50 [3] | also measured
COc1ccc2c(c1)N(C(=O)CSC[C@@H]1CCCN3CCCC[C@H]13)c1ccccc1S2 | 1200 nM | – | –
c1ccc2c(c1)-c1ccccc1C2C[C@H]1CCCN2CCCC[C@H]12 | 1100 nM | – | –
C(=C1c2ccccc2CCc2ccccc21)[C@@H]1CCCN2CCCC[C@H]12 | 4200 nM | – | –
C(=C(c1ccccc1)c1ccccc1)[C@@H]1CCCN2CCCC[C@H]12 | 3800 nM | – | –
O=c1ccc2cc(OCCCSC[C@@H]3CCCN4CCCC[C@H]34)ccc2o1 | 5400 nM | 5400 nM | Ratio IC50 [2]: 0.06
C(=C1c2ccccc2Sc2ccccc21)[C@@H]1CCCN2CCCC[C@H]12 | 930 nM | – | –
c1ccc2c(c1)[Se]c1ccccc1N2C[C@H]1CCCN2CCCC[C@H]12 | 870 nM | – | –
CCN(CC)C(C)C(=O)N1c2ccccc2Sc2ccccc21 (stereo unspecified) | 840 nM | – | –
C1=Cc2ccccc2N(C[C@@H]2CCCN3CCCC[C@H]23)c2ccccc21 | 2200 nM | 8300 nM | Ratio IC50 [2]: 3.8
O=C1Nc2cccnc2N(CSC[C@@H]2CCCN3CCCC[C@H]23)c2ccccc21 | – | – | inhibition [4]: 34%
c1ccc2c(c1)Oc1ccccc1N2C[C@@H]1CCCN2CCCC[C@H]12 | 2200 nM | – | –
C[N+]12CCCC[C@@H]1[C@H](CC1c3ccccc3Sc3ccccc31)CCC2 (stereo partly specified) | 410 nM | – | –
N#Cc1ccc2c(c1)N(CCCN1CCC(O)CC1)c1ccccc1S2 [PERICIAZINE] | 230 nM | 7000 nM | Ratio IC50 [2]: 30
c1ccc2c(c1)[Se]c1ccccc1N2C[C@@H]1CCCN2CCCC[C@H]12 | 1100 nM | – | –
c1ccc2c(c1)Sc1ccccc1C2C[C@@H]1CCCN2CCCC[C@H]12 | 150 nM | 7000 nM | Ratio IC50 [2]: 47; IC50 [8]: 100 nM
COc1ccc2nc3cc(Cl)ccc3c(SC[C@@H]3CCCN4CCCC[C@H]34)c2c1 | 4700 nM | – | –
O=c1ccc2cc(OCCCCCSC[C@@H]3CCCN4CCCC[C@H]34)ccc2o1 | 5800 nM | 680 nM | Ratio IC50 [2]: 0.12
O=C(CCCCSC[C@@H]1CCCN2CCCC[C@H]12)N1c2ccccc2Sc2ccccc21 | 890 nM | 5700 nM | Ratio IC50 [2]: 6.4
c1ccc(C(C[C@@H]2CCCN3CCCC[C@H]23)c2ccccc2)cc1 | 5500 nM | 6700 nM | Ratio IC50 [2]: 1.2
FC(F)(F)c1ccc2c(c1)N(C[C@@H]1CCCN3CCCC[C@H]13)c1ccccc1S2 | 4000 nM | – | –
O=C(CCCSC[C@@H]1CCCN2CCCC[C@H]12)N1c2ccccc2Sc2ccccc21 | 740 nM | 6800 nM | Ratio IC50 [2]: 9.2
O=c1ccc2cc(OCCCCSC[C@@H]3CCCN4CCCC[C@H]34)ccc2o1 | 4300 nM | 1200 nM | Ratio IC50 [2]: 0.28
OC1(C[C@@H]2CCCN3CCCC[C@H]23)c2ccccc2Sc2ccccc21 | 950 nM | – | –
c1ccc2c(c1)CCc1ccccc1N2CSC[C@@H]1CCCN2CCCC[C@H]12 | 860 nM | – | –
